In this test the test system is BDNF promoter IV. The test can be described thus: Tet-assisted bisulfite sequencing (TAB-seq) of 5-hmC in BDNF promoter IV. Format: cell-based, mouse. Conditions: with 4 BDNF gRNAs; 40 and 60 hours post infection. As to the method: FIGS. 11A-11L depict targeted demethylation of BDNF promoter IV by dCas9-Tet1 in neurons. […] PAM for each gRNA is highlighted by a red box. […] Note that cultured neurons were treated with AraC on DIV2 to halt cell division in glial cells and neural progenitors. […] FIG. 11C provides EDU labeling analysis for the mouse primary neurons over the course of KCl treatment for 24 hrs. Note that extremely few EDU positive cells were observed. Stained in red for EDU, green for MAP2 and DAPI for nuclei. Scale bar: 500 um. FIG. 11D Upper panel: provides quantification of neuronal density over the course of KCl treatment. The post-mitotic neuron density remains steadily around 4.5×10^4/cm2 over time. Bars represent mean±SD of three experimental replicates. Lower panel: provides quantification of the EDU positive cells over the course of KCl treatment. Less than 2% of the cells are EDU-positive over 24 hrs. Bars represent mean±SD of three experimental replicates. FIG. 11E provides confocal micrographs of BDNF induction by ectopic expression of dCas9-Tet1 and a set of 4 gRNAs targeting BDNF promoter IV. Stained in green for BDNF, magenta for MAP2, red for Cherry and blue for DAPI. […]
Because post-mitotic neurons were used for these experiments, loss of methylation was likely due to active demethylation. […] Similarly, 5-hmC was also detected after KCl treatment (FIG. 11I). […]

As to “dCas9-Tet1: catalytically inactive Cas9 (dCas9) fused through NLS to the Tet1 catalytic domain, SEQ ID NO: 159; lentivirally expressed with gRNAs”, the “5-hmC level in BDNF promoter IV” value was “detected 40-hour post infection with dCas9-Tet1 and gRNA lentiviruses and diminished after 60 hours”.

(Values after patent publication US12060588B2, “Methods of editing DNA methylation” (Whitehead Institute for Biomedical Research, priority 2016, dated 2024).)
